Earlier results, collected in US20240016803A1, “PHARMACEUTICAL COMPOSITION COMPRISING EICOSAPENTAENOIC ACID AND DERIVATIVES THEREOF AND A STATIN” (Amarin Pharmaceuticals Ireland Limited, priority 2013, published 2024).

Conditions: repeated twice-daily dosing of 2 icosapent ethyl 1 g capsules (4 g/d total); previously reported

For CC/C=C\C/C=C\C/C=C\C/C=C\C/C=C\CCCC(=O)OCC [icosapent ethyl], the “mean elimination half-life (t1/2) for total plasma EPA” value is listed as 89 h.
